The values that follow are results of earlier work, collected in patent US9278976B2, “Aminotetrahydropyrans as dipeptidyl peptidase-IV inhibitors for the treatment of diabetes” (Merck Sharp & Dohme Corp., priority 2008, dated 2016).

Structures are written as SMILES.

The conditions of series [1]: mouse, cyclophosphamide-induced neutropenia.
The conditions of series [2]: rats; doubled from day 7.

On to `CC(C)[C@H](N)C(=O)N1CCC[C@H]1B(O)O` [Val-Boro-Pro], for which the hematopoiesis result in series [1] is “stimulated hematopoiesis”. For the molecule `CC(C)N1CCC(c2ccccc2)(c2ccccc2)CC1` [Prodipine, Pro-Pro-diphenyl-phosphonate], the cardiac allograft survival in series [2] is 14 day.
